{"source": "paper PMC11784013", "about": "“Potassium molybdate blocks APN-dependent coronavirus entry by degrading receptor via PIK3C3-mediated autophagy” (Journal of Virology, 2024)", "key": {"TGEV Miller": {"test_system": "TGEV Miller", "assay": "TGEV infection of porcine intestinal organoids (monolayer, apical-out)", "format": "cell-based, transmissible gastroenteritis virus", "conditions": "RT-qPCR, TCID50, western blot", "procedure": "(§1) Fig 2 PM restricts TGEV and PRCV infection in porcine intestinal organoids. (A) Intestinal organoids cultured in 96-well plate were incubated with different concentrations of PM for 24 h, which was tested by Cell Counting Kit 8. (B and C) The intestinal organoids monolayer was treated with indicated PM and infected with TGEV Miller (0.1 MOI) for 24 h, which was measured by IFA (B), scale bar: 50 µm, RT-qPCR, TCID50, and western blot (C). (D) Apical-out intestinal organoids were treated with indicated PM and infected TGEV Miller (1 MOI) for 48 h, which was determined by RT-qPCR, TCID50, and western blot. (E and F) The intestinal organoids monolayer was treated with different concentrations of PM and infected with PRCV for 24 h, which was determined by IFA (E), scale bar: 50 µm, RT-qPCR, TCID50, and western blot (F). (G) Apical-out intestinal organoids were treated with indicated PM and infected PRCV (1 MOI) for 48 h, which was detected by RT-qPCR, TCID50, and western blot. Results are presented as mean ± SD of data from three independent experiments. **, P ≤ 0.01; ***, P ≤ 0.001.\nPorcine 3D ileum organoids coated with Matrigel for 1 week were dissociated by incubation in 5 mM cold EDTA buffer on a rotating platform for 1 h at 4°C. […]"}, "ATG14": {"test_system": "ATG14", "assay": "ATG14 expression in ST cells (western blot)", "format": "cell-based, porcine", "conditions": "Fig. S8A, PM 10 mM, PRCV 0.1 MOI, 16 h", "procedure": "Fig 7 PM degrades APN expression via activating PIK3C3-mediated autophagy. (A) Graphical representation for autophagy and the targets of different autophagy inhibitors. (B) ST cells were treated with PM (10 mM) in the presence and absence of 3-MA (20 mM), SBI0206965 (20 µM), and 3BDO (30 µM) for 16 h, and the APN expression was detected by western blot. (C) ST cells were treated with PM (10 mM) in the presence and absence of 3-MA (20 mM) for 16 h, and the APN, PIK3C3, ATG14, BECN1, P62, and LC3 were measured by western blot. (D) ST cells were transfected with PIK3C3 siRNA-1, PIK3C3 siRNA-2, PIK3C3 siRNA-3, PIK3C3 siRNA-4, and NC siRNA for 24 h, the PIK3C3 expression was detected by western blot. […] The APN, PIK3C3, ATG14, BECN1, P62, and LC3 were detected by western blot. […] (G) PIK3C3 was detected by western blot in WT ST cells and PIK3C3 KO ST cells. (H) WT ST cells and PIK3C3 KO ST cells were treated with PM (10 mM) for 16 h and then the APN, PIK3C3, ATG14, BECN1, P62, and LC3 were detected by western blot. […] The APN, PIK3C3, P62, and LC3 were detected by western blot. All western blot results were calculated by Image J. All experiments were performed in triplicate.\nFig. S8. […] Then the APN, PIK3C3, ATG14, BECN1, P62, PRCV N and LC3 were detected by western blot (A), and viral titers and PRCV N mRNA level were determined by TCID50 (B) and RT-qPCR (C) . […]"}, "intestinal organoids": {"test_system": "intestinal organoids", "assay": "Cell Counting Kit 8 cytotoxicity assay in intestinal organoids", "format": "cell-based, porcine", "conditions": "PM at concentrations less than 30 mM, 24 h", "procedure": "as §1\nST cells or intestinal organoids cultured in a 96-well plate were incubated with different concentrations of PM (0, 0.1, 0.25, 0.5, 1, 2.5, 5, 10, 20, and 30 mM) for 24 h. […] The absorbance of each well was then measured at 450 nm using a microplate reader to determine cell viability."}}, "data": [{"smiles": "[K+].[K+].[O]=[Mo](=[O])([O-])[O-]", "note": "[PM, potassium molybdate]", "values": [{"measurement": "TGEV infection in intestinal organoid monolayer", "setting": "TGEV Miller; TGEV Miller 0.1 MOI, 24 h, IFA, dose-dependent", "result": "significantly inhibited TGEV infection"}, {"measurement": "TGEV infection in apical-out organoids", "setting": "TGEV Miller; TGEV Miller 1 MOI, 48 h", "result": "markedly inhibited TGEV infection"}, {"measurement": "ATG14 level, western blot, relative to WT without PM (=1)", "setting": "ATG14; PIK3C3 KO ST cells", "result": 1.03}, {"measurement": "ATG14 level, western blot, relative to WT without PM (=1)", "setting": "ATG14; WT ST cells", "result": 1.07}, {"measurement": "cytotoxicity (Cell Counting Kit 8)", "setting": "intestinal organoids", "result": "did not cause significant cytotoxicity"}]}]}
